In US20260232682A1, “GSPT1 DEGRADER COMPOUNDS” (Captor Therapeutics S.A., priority 2023, published 2026):

Experiments:
[1] = biological target: T1, [GSPT1]-[compound of formula (I)]-[CRBN/DDB1] complex (Homo sapiens, UniProt P15170+Q96SW2); assay: AlphaLISA ternary complex formation assay (GSPT1); format: binding; details: 0.5 h; 1 μM compound; normalized to reference compound CC-885; read-out: Normalized AlphaLISA ternary complex average signal at 1 μM molecule
In short: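 Biotinylated GSPT1 on streptavidin donor beads and 6×His-CRBN/DDB1 on anti-His acceptor beads (each 200 nM before mixing) in HBS pH 7.4 with 0.1% Tween-20 and 1 mM DTT, 2% DMSO final, 30 min at 25 °C. AlphaLISA luminescence is normalized between DMSO background and the reference compound's maximum.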

[2] = biological target: T1, [GSPT1]-[compound of formula (I)]-[CRBN/DDB1] complex; assay: HTRF ternary complex assay (GSPT1); format: binding; details: read-out: HTRF ternary complex Average pEC50 by molecule (converted)
In short: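 Compounds in dose-response were incubated 180 min at 25 °C with 48 nM GSPT1 and 52.8 nM 6×His-CRBN/DDB1, plus Streptavidin-Eu cryptate and anti-6×His-d2, in buffer with 1 mM DTT and 0.5% DMSO. TR-FRET (665/620) was normalized to DMSO background and fitted with a Hill slope model for EC50/pEC50.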

[3] = biological target: T2, [SALL4 ZF2]-[compound]-[CRBN/DDB1] ternary complex (Homo sapiens, UniProt Q96SW2+Q9UJQ4); assay: AlphaLISA assay for off-target recruitment detection, SALL4 ZF2; format: binding; details: 1 μM compound; normalized to Lenalidomide; read-out: Normalized ternary complex response, SALL4 ZF2
T2 construct: SALL4 ZF2
In short: (§1)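 Neo-substrate with 40 μg/ml donor beads and 200 nM 6×His-CRBN/DDB1 with 40 μg/ml anti-His acceptor beads were each prepared in PBS pH 7.4 with Tween-20 and 1 mM DTT, preincubated 30 min at RT, then mixed. Compounds at 2% DMSO were incubated 30 min at 25 °C, read at 680/615 nm, and normalised between DMSO background and reference glue maximum.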

[4] = biological target: T3, [IKZF1 ZF2]-[compound]-[CRBN/DDB1] ternary complex (Homo sapiens, UniProt Q13422+Q96SW2); assay: AlphaLISA assay for off-target recruitment detection, IKZF1 ZF2; format: binding; details: 1 μM compound; normalized to Lenalidomide; read-out: Normalized ternary complex response, IKZF1 ZF2
T3 construct: IKZF1 ZF2
In short: as §1

[5] = biological target: T4, [IKZF2 ZF2]-[compound]-[CRBN/DDB1] ternary complex (Homo sapiens, UniProt Q96SW2+Q9UKS7); assay: AlphaLISA assay for off-target recruitment detection, IKZF2 ZF2; format: binding; details: 1 μM compound; normalized to Helios modulator; read-out: Normalized ternary complex response, IKZF2 ZF2
T4 construct: IKZF2 ZF2
In short: as §1

GSPT1-HiBiT HEK293 cells = assay: Cell Viability-CTG assay accompanying the Nano-Glo HiBiT assay; format: cell-based; details: 6 hours treatment, viability of GSPT1-HiBiT HEK293 cells
In short: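 HEK293 GSPT1-HiBiT cells treated as for the HiBiT assay, incubated 6 h at 37 °C/5% CO2, then equilibrated to RT. Viability read by CellTiter-Glo luminescence after 4 min shaking and 8 min dark incubation; Mean Minimum values derived by non-linear regression of RLU data.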

T4 sequence (Q9UKS7 140-162 limits assumed): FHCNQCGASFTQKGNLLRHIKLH
T4 sequence (Q96SW2 whole entry): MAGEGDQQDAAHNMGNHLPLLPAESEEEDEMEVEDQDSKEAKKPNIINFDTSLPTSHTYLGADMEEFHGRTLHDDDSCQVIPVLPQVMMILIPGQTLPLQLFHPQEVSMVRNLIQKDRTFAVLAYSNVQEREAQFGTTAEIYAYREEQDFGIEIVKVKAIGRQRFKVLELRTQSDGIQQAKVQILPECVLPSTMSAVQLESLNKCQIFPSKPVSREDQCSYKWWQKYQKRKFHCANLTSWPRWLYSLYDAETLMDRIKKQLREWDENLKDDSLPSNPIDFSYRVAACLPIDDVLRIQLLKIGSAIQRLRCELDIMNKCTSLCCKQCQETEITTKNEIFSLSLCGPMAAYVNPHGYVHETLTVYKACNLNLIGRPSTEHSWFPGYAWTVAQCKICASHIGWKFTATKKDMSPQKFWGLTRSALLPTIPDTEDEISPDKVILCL
T4 sequence (Q16531 whole entry partner): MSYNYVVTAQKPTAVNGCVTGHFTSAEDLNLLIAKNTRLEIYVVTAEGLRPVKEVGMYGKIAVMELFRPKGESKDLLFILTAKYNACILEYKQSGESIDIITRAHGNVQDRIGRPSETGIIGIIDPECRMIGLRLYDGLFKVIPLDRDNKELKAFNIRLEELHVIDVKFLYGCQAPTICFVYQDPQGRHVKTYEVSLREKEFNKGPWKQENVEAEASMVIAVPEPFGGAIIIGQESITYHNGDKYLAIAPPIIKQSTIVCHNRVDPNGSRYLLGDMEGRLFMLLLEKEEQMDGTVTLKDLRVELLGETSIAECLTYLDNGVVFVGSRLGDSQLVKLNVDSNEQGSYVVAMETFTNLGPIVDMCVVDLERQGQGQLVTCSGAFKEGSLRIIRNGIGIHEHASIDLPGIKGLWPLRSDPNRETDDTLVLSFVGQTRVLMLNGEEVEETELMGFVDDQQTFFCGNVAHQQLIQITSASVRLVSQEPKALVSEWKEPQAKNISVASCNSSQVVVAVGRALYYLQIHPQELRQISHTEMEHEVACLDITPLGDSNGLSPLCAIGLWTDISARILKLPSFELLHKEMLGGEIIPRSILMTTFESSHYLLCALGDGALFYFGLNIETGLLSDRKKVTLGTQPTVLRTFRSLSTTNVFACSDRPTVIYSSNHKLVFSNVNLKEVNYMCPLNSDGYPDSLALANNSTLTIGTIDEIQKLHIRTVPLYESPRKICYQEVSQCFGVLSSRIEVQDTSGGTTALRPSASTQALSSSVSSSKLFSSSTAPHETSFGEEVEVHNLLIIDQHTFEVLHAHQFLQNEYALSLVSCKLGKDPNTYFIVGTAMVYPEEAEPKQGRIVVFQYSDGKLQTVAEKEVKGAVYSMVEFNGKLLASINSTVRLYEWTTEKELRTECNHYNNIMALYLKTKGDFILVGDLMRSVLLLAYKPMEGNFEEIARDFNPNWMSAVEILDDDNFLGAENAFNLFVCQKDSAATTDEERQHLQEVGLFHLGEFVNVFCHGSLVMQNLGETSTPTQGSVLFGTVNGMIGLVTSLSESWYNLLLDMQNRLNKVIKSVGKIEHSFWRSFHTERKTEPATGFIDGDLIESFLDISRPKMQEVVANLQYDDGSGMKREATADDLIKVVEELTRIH
T1 sequence (P15170 whole entry): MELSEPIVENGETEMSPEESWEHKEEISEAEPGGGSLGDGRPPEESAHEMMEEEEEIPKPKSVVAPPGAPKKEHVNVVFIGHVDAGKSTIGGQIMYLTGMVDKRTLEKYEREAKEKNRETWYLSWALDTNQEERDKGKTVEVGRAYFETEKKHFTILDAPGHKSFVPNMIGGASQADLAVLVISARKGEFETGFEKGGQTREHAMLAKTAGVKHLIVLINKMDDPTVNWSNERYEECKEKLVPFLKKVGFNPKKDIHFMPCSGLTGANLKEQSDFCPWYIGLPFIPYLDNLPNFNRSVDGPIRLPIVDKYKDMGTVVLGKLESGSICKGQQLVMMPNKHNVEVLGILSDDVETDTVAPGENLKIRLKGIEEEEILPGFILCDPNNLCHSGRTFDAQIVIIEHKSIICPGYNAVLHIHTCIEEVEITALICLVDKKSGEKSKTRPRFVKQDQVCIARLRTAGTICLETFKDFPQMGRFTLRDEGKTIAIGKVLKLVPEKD
T1 sequence (Q96SW2 whole entry): as the sequence (Q96SW2 whole entry) above
T1 sequence (Q16531 whole entry partner): as the sequence (Q16531 whole entry partner) above
T2 sequence (Q9UJQ4 410-432 limits assumed): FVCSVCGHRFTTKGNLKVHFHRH
T2 sequence (Q96SW2 whole entry): as the sequence (Q96SW2 whole entry) above
T2 sequence (Q16531 whole entry partner): as the sequence (Q16531 whole entry partner) above
T3 sequence (Q13422 145-167 limits assumed): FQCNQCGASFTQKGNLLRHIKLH
T3 sequence (Q96SW2 whole entry): as the sequence (Q96SW2 whole entry) above
T3 sequence (Q16531 whole entry partner): as the sequence (Q16531 whole entry partner) above

| SMILES | activation at 1 µM [1] [%] | EC50 [2] [µM] | activation at 1 µM [3] [%] | activation at 1 µM [4] [%] | activation at 1 µM [5] [%] | CTG assay Mean minimum (GSPT1-HiBiT HEK293 cells) |
| --- | --- | --- | --- | --- | --- | --- |
| Cc1ccc(NC(=O)OCc2ccc3cc(N4CCC(=O)NC4=O)c(C)nc3c2)cc1Cl [Compound 28, (3-(2,4-dioxotetrahydropyrimidin-1(2H)-yl)-2-methylquinolin-7-yl)methyl (3-chloro-4-methylphenyl)carbamate] | 10 to 50 | 0.316 to 3.16 | < 10 | < 10 | < 10 | ++++ (++++≥75% of viability of the HiBiT-GSPT1 HEK293 cells) |
| Cc1nc2cc(CNC(=O)Nc3cc(C(C)(C)C)no3)ccc2cc1N1CCC(=O)NC1=O [Compound 64, 1-(3-(tert-butyl)isoxazol-5-yl)-3-((3-(2,4-dioxotetrahydropyrimidin-1(2H)-yl)-2-methylquinolin-7-yl)methyl)urea] | 10 to 50 | < 0.316 | < 10 | < 10 | < 10 | ++++ (++++≥75% of viability of the HiBiT-GSPT1 HEK293 cells) |
| Cc1nc2cc(COC(=O)Nc3cc(C(C)(C)C)n[nH]3)ccc2cc1C1CCC(=O)NC1=O (stereo not drawn) [Compound 75, (3-(2,6-dioxopiperidin-3-yl)-2-methylquinolin-7-yl)methyl (3-(tert-butyl)-1H-pyrazol-5-yl)carbamate] | > 50 | 0.316 to 3.16 | < 10 | < 10 | < 10 | ++++ (++++≥75% of viability of the HiBiT-GSPT1 HEK293 cells) |
| Cc1nc2cc(COC(=O)Nc3cc(C(C)(C)C)no3)ccc2cc1N1CCC(=O)NC1=O [Compound 72, (3-(2,4-dioxotetrahydropyrimidin-1(2H)-yl)-2-methylquinolin-7-yl)methyl (3-(tert-butyl)isoxazol-5-yl)carbamate] | 10 to 50 | 0.316 to 3.16 | < 10 | < 10 | < 10 | ++++ (++++≥75% of viability of the HiBiT-GSPT1 HEK293 cells) |
| Cc1ccc(NC(=O)OCc2ccc3cc([C@@H]4CCC(=O)NC4=O)c(C)nc3c2)cc1Cl [Compound 38, (3-(2,6-dioxopiperidin-3-yl)-2-methylquinolin-7-yl)methyl (3-chloro-4-methylphenyl)carbamate] | < 10 | 0.316 to 3.16 | < 10 | < 10 | < 10 | ++++ (++++≥75% of viability of the HiBiT-GSPT1 HEK293 cells) |
| Cc1nc2cc(COC(=O)Nc3cccc(-c4ccccc4)c3)ccc2cc1C1CCC(=O)NC1=O (stereo not drawn) [Compound 46, (3-(2,6-dioxopiperidin-3-yl)-2-methylquinolin-7-yl)methyl [1,1′-biphenyl]-3-ylcarbamate] | 10 to 50 | 0.316 to 3.16 | < 10 | < 10 | < 10 | ++++ (++++≥75% of viability of the HiBiT-GSPT1 HEK293 cells) |
| Cc1nc2cc(COC(=O)Nc3cc(OC(F)(F)F)ccc3F)ccc2cc1C1CCC(=O)NC1=O (stereo not drawn) [Compound 6, (3-(2,6-dioxopiperidin-3-yl)-2-methylquinolin-7-yl)methyl (2-fluoro-5-(trifluoromethoxy)phenyl)carbamate] | 10 to 50 | 0.316 to 3.16 | < 10 | < 10 | < 10 | ++++ (++++≥75% of viability of the HiBiT-GSPT1 HEK293 cells) |
